Like-named read-outs stand apart in the source and are kept apart here.
Key:
[1] = tested on: Murine norovirus (MNV, strain MNV 1.CW1); test: MNV-induced CPE reduction assay (MTS) in RAW 264.7 cells; format: cell-based; conditions: for selectivity index (SI): MNV, CC50/EC50
[2] = tested on: HuNoV GI.1 replicon; test: HuNoV GI.1 replicon assay in HGT cells (RT-qPCR); format: cell-based, Human norovirus
[3] = tested on: Murine norovirus (MNV, strain MNV 1.CW1); test: MNV virus yield assay, viral RNA by RT-qPCR; format: cell-based; conditions: Norwalk virus, RAW264.7, RAW 264.7 cells
[4] = Cytotoxicity assay (MTS) in RAW 264.7 cells; format: cell-based; conditions: mouse
[5] = tested on: HGT cells; test: Adverse effects on host cells of the HuNoV GI.1 replicon assay; format: cell-based; conditions: up to the highest tested concentration of 100 µM
[6] = molecular target: GI.1 protease (Norovirus, UniProt Q83883); test: Cell-based FRET protease assay, GI.1 protease; design: species or system Human norovirus
[7] = molecular target: GII protease (Lordsdale virus, UniProt P54634); test: Cell-based FRET protease assay, GII protease; design: species or system norovirus
[8] = molecular target: GV protease (Norovirus, UniProt Q80J95); test: Cell-based FRET protease assay, GV protease
[9] = molecular target: mutated GI.1 proteases (A105V, I109V, A105V/I109V) (Norovirus, UniProt Q83883, A1205V/I1209V); test: Cell-based FRET protease assay, mutated GI.1 proteases; design: species or system Human norovirus; conditions: versus WT
[10] = molecular target: mutated GI.1 proteases (A105V, I109V, A105V/I109V) (Norovirus, UniProt Q83883, I1209V); test: as above; design: species or system Human norovirus; conditions: versus WT
[11] = Water solubility; format: physicochemical
[12] = Pharmacokinetic studies in mice; format: in vivo; conditions: CD-1 mice; for AUC(0-t) / Cmax / Tmax / bioavailability / half-life / AUC(0-inf) / MRT inf / clearance: male, mouse, serum; for AUC(0-inf): read-out: AUCINF_obs; for MRT inf: read-out: MRTINF_obs; for clearance: read-out: CL_obs
[13] = tested on: HuNoV GI.1 replicon; test: HuNoV GI.1 replicon clearance assay; format: cell-based, Human norovirus; conditions: for reduction in HuNoV GI.1 RNA: 10 µM
[14] = tested on: compound 4res MNV variant; test: Generation of drug-resistant MNV variants; format: cell-based, Murine norovirus; conditions: after 25 passages (6 months)
[15] = tested on: HuNoV GI.1 replicon variants; test: Generation of drug-resistant HuNoV GI.1 replicon variants; format: cell-based, Human norovirus; conditions: for EC50: Norovirus
[16] = molecular target: mutated GI.1 proteases (A105V, I109V, A105V/I109V) (Norovirus, UniProt Q83883, A1205V); test: Cell-based FRET protease assay, mutated GI.1 proteases; design: species or system Human norovirus; conditions: versus WT
[17] = tested on: Murine norovirus (MNV, strain MNV 1.CW1); design: method as in earlier work; conditions: read-out: EC50 against MNV; cited from earlier work
[18] = Norwalk virus, RAW264.7, read-out: MNV-EC50
[19] = Norovirus, HuNoV replicon, read-out: HuNoV-EC50
[20] = selection pressure: 6 µM of compound 4
[21] = selection pressure: 10 µM of compound 4
[22] = selection pressure: 16 µM of compound 4
[23] = selection pressure: DMSO control
[24] = selection pressure: 10 µM of rupintrivir
[25] = selection pressure: 14 µM of rupintrivir

For `Cc1cc(C(=O)NC(C(=O)NC(CC2CCCCC2)C(=O)NC(C=O)CC2CCNC2=O)C(C)C)no1` (stereo not drawn) [10a], the EC50 [1, 18] was 3.8 ± 0.97 µM and the EC50 [2, 19] was 0.24 ± 0.11 µM.
Compound `CC(C)C(NC(=O)c1cc2ccccc2[nH]1)C(=O)NC(CC1CCCCC1)C(=O)NC(C=O)CC1CCNC1=O` (stereo not drawn) [10b] has an EC50 [1, 18] of 0.23 ± 0.11 µM and an EC50 [2, 19] of 0.016 ± 0.009 µM.
Compound `CC(C)C(NC(=O)c1cc2ccccc2o1)C(=O)N[C@@H](CC1CCCCC1)C(=O)N[C@H](C=O)C[C@@H]1CCNC1=O` (stereo partly drawn) [10c] has an EC50 [1, 18] of 0.094 ± 0.014 µM and an EC50 [2, 19] of 0.016 ± 0.006 µM.
In the case of `CC(C)C(NC(=O)c1ccc2ccccc2n1)C(=O)N[C@@H](CC1CCCCC1)C(=O)N[C@H](C=O)C[C@@H]1CCNC1=O` (stereo partly drawn) [10d], the “selectivity index (SI)” value [1] is reported as over 1000, the EC50 [1, 18] is reported as 0.037 ± 0.016 µM and the EC50 [3] is reported as 0.03 ± 0.01 µM. For the same compound, the CC50 [4] was 48 ± 3 µM, the EC50 [2, 19] was 0.012 ± 0.01 µM and the “fold more potent (EC50)” value ([2]; versus the initial hit) was “about 100 fold”. For the same compound, the “adverse effects on the host cells” value [5] was “without adverse effects”, the IC50 [6] was 0.09 µM and the “improvement in the FRET assay, GI protease” value ([6]; versus the initial hit) was ~ 300 fold. For the same compound, the IC50 [7] was 0.12 µM, the “improvement in the FRET assay, GII protease” value ([7]; versus the initial hit) was ~ 300 fold and the IC50 [8] was 0.49 µM. The “change in IC50 value, A105V/I109V mutation” value ([9]; GI.1 protease) was 1.6 fold, the “shift in IC50 value, I109V mutation” value ([10]; GI.1 protease) was 2.5 fold and the water solubility [11] was “low water solubility”. The “bioavailability, in words” value [12] was “good”, the “half-life (T1/2), in words” value [12] was “long” and the “maximal concentration (Cmax), in words” value [12] was “high”. The Vss_obs ([12]; i.v. (5 mg/kg)) was 3.867 ± 0.758 L/kg, the AUC(0-t) ([12]; ip, i.p. (20 mg/kg)) was 10800 ng·h/mL and the Cmax ([12]; ip, i.p. (20 mg/kg)) was 12700 ng/mL. It also gave a Tmax ([12]; ip, i.p. (20 mg/kg)) of 0.25 h, a bioavailability ([12]; ip, i.p. (20 mg/kg)) of 150% and a half-life ([12]; ip, i.p. (20 mg/kg)) of 4.26 ± 0.24 h. For the same compound, the AUC(0-inf) ([12]; ip, i.p. (20 mg/kg)) was 10800 ng·h/mL, the MRT inf ([12]; ip, i.p. (20 mg/kg)) was 1.34 ± 0.29 h and the AUC(0-t) ([12]; iv, i.v. (5 mg/kg)) was 1800 ± 63 ng·h/mL. The half-life ([12]; iv, i.v. (5 mg/kg)) was 5.64 ± 1.63 h, the AUC(0-inf) ([12]; iv, i.v. (5 mg/kg)) was 1810 ± 67 ng·h/mL and the clearance ([12]; iv, i.v. (5 mg/kg)) was 46 ± 1.7 mL/min/kg. For the same compound, the MRT inf ([12]; iv, i.v. (5 mg/kg)) was 1.4 ± 0.23 h, the AUC(0-t) ([12]; sc, s.c. (5 mg/kg)) was 1840 ± 717 ng·h/mL and the Cmax ([12]; sc, s.c. (5 mg/kg)) was 1570 ± 582 ng/mL. It also gave a Tmax ([12]; sc, s.c. (5 mg/kg)) of 0.42 ± 0.29 h, a bioavailability ([12]; sc, s.c. (5 mg/kg)) of 102% and a half-life ([12]; sc, s.c. (5 mg/kg)) of 6.02 ± 0.92 h. For the same compound, the AUC(0-inf) ([12]; sc, s.c. (5 mg/kg)) was 1860 ± 718 ng·h/mL and the MRT inf ([12]; sc, s.c. (5 mg/kg)) was 1.7 ± 0.16 h.
For `O=C[C@H](C[C@@H]1CCNC1=O)NC(=O)[C@H](CC1CCCCC1)NC(=O)c1ccc2ccccc2n1` [compound 4], the “selectivity index (SI)” value [1] was 35.6, the EC50 ([1]; Norwalk virus, RAW264.7, RAW 264.7 cells, MTS, read-out: EC50, MNV-induced CPE) was about 1 µM and the EC50 ([1]; RAW 264.7 cells, MTS, read-out: EC50, MNV-induced CPE) was 0.7 ± 0.2 µM. It also gave an EC50 [3] of 1.7 ± 0.6 µM, a CC50 [4] of 25.3 ± 6.1 µM and an EC50 ([2]; HGT cells, 72 h, replicon RNA relative to β actin, read-out: EC50, HuNoV GI.1 replicon) of 1.2 ± 0.6 µM. For the same compound, the “adverse effects on the host cells” value [5] was “no adverse effects”, the “reduction in HuNoV GI.1 RNA” value ([13]; after three passages) was 3 log10 and the “reduction in HuNoV GI.1 RNA” value ([13]; after two passages) was 2 log10. The “clearance of the HuNoV GI.1 replicon from cells” value ([13]; two consecutive treatments with 10 µM, rebound with G418) was “could clear cells from the HuNoV GI.1 replicon completely”, the “shift in EC50, MNV compound 4res variant” value [14] was 4.5 fold and the EC50 [15, 20] was 3.8 µM. It also gave an EC50 [15, 21] of 4.3 µM, an EC50 [15, 22] of 11.5 ± 0.9 µM and an EC50 [15, 23] of 0.8 ± 0.3 µM. The “Fold Change in EC50” value [15, 20] was 4.5, the “Fold Change in EC50” value [15, 21] was 5.2 and the “Fold Change in EC50” value [15, 22] was 13.8. For the same compound, the IC50 [6] was 34 µM, the IC50 [7] was 40.6 µM and the IC50 [8] was 32.5 µM. The “shift in IC50 value, A105V mutation in GI.1 protease” value [16] was “not”, the “shift in IC50 value, A105V/I109V mutation in GI.1 protease” value [9] was “not” and the “reduction of GI.1 protease sensitivity, single I109V mutation” value [10] was “did not result in a significant reduction”. For the same compound, the “area under the curve (AUC) value, in words” value [12] was “high”, the “bioavailability, in words” value [12] was “good” and the “half-life (T1/2), in words” value [12] was “moderate”. For the same compound, the “maximal concentration (Cmax), in words” value [12] was “high”, the Vss_obs ([12]; i.v. (5 mg/kg)) was 1.498 ± 0.714 L/kg and the AUC(0-t) ([12]; ip, i.p. (20 mg/kg)) was 14900 ng·h/mL. For the same compound, the Cmax ([12]; ip, i.p. (20 mg/kg)) was 14500 ng/mL, the Tmax ([12]; ip, i.p. (20 mg/kg)) was 0.25 h and the bioavailability ([12]; ip, i.p. (20 mg/kg)) was 72.1%. The half-life ([12]; ip, i.p. (20 mg/kg)) was 5.11 ± 1.07 h, the AUC(0-inf) ([12]; ip, i.p. (20 mg/kg)) was 15000 ng·h/mL and the MRT inf ([12]; ip, i.p. (20 mg/kg)) was 1.4 ± 0.06 h. The AUC(0-t) ([12]; iv, i.v. (5 mg/kg)) was 5160 ± 1320 ng·h/mL, the half-life ([12]; iv, i.v. (5 mg/kg)) was 5.5 ± 0.85 h and the AUC(0-inf) ([12]; iv, i.v. (5 mg/kg)) was 5190 ± 1300 ng·h/mL. For the same compound, the clearance ([12]; iv, i.v. (5 mg/kg)) was 16.8 ± 4.4 mL/min/kg, the MRT inf ([12]; iv, i.v. (5 mg/kg)) was 1.44 ± 0.3 h and the AUC(0-t) ([12]; sc, s.c. (5 mg/kg)) was 4060 ± 1140 ng·h/mL. For the same compound, the Cmax ([12]; sc, s.c. (5 mg/kg)) was 2200 ± 894 ng/mL, the Tmax ([12]; sc, s.c. (5 mg/kg)) was 0.58 ± 0.29 h and the bioavailability ([12]; sc, s.c. (5 mg/kg)) was 78.6%. For the same compound, the half-life ([12]; sc, s.c. (5 mg/kg)) was 5.63 ± 0.4 h, the AUC(0-inf) ([12]; sc, s.c. (5 mg/kg)) was 4110 ± 1140 ng·h/mL and the MRT inf ([12]; sc, s.c. (5 mg/kg)) was 2.95 ± 0.53 h.
In the case of `CCOC(=O)/C=C/[C@H](C[C@@H]1CCNC1=O)NC(=O)[C@@H](CC(=O)[C@@H](NC(=O)c1cc(C)on1)C(C)C)Cc1ccc(F)cc1` [rupintrivir, Rupintrivir, reference compound], the EC50 [15, 24] is reported as 9.4 ± 0.5 µM, the EC50 [15, 25] is reported as 15 ± 3 µM and the EC50 [15, 23] is reported as 1 ± 0.1 µM. For the same compound, the “Fold Change in EC50” value [15, 24] was 9.3, the “Fold Change in EC50” value [15, 25] was 15 and the “Fold Change in EC50” value ([15]; selection pressure: 14 µM of rupintrivir, listed as Rupintrivir) was 15.2. The IC50 ([6]; FRET, HEK293T cells, WT protease, read-out: IC50, GI.1 protease) was 3 µM, the IC50 ([7]; FRET, HEK293T cells, WT protease, read-out: IC50, GII protease) was 12.2 µM and the IC50 [8] was 4.6 µM. The “shift in IC50 value, A105V mutation in GI.1 protease” value [16] was “significant shift”, the “shift in IC50 value, A105V/I109V mutation in GI.1 protease” value [9] was “significant shift” and the “reduction of GI.1 protease sensitivity, single I109V mutation” value [10] was “did not result in a significant reduction”. The EC50 [17] was 13 ± 2 µM.
